Reference: patent US20240409571A1 (priority 2023, published 2024)

Legend:
CjCst-I = format: biochemical, Campylobacter jejuni
CjCst-II = format: biochemical, Campylobacter jejuni

**Q.** How did the activity towards sialylating (CjCst-I) turn out when `CCCCCCCCCCCCC/C=C/[C@@H](O)[C@@H](N)CO` [GD1b sphingosine] was run?
**A.** very good activity

**Q.** Which results are given for `CC(=O)N[C@H]1[C@H](O)[C@H](NC(C)=O)C(O)O[C@@H]1CO` (stereo partly drawn) [ManNAc4NAc, 4-acetamido-4-deoxy-N-acetylmannosamine]?
**A.** Sialylation by CjCst-II, acceptor GM3ßSph (CjCst-II): No reaction; Sialylation by CjCst-II, acceptor GM3βProN3 (CjCst-II): No reaction
